Here are results for 22 molecules from patent publication US20050054582A1, “Para-amino benzoic acids as integrin antagonists” (priority 2001, published 2005).

Read-outs that look alike come from different tables or passages of the source. Some results are limits rather than exact numbers.

The test system of this assay is adhesion of Ramos cells to VCAM-1. Put plainly: Adhesion of Ramos cells to immobilized VCAM-1 (domains 1-3). The assay is classed as cell-based. To be noted: Homo sapiens. The source says: In Vitro Assay: Adhesion of Ramos Cells to Immobilized VCAM-1 (Domains 1-3) Preparation of VCAM-1 (Extracellular Domains 1-3)
Complementary DNA (cDNA) encoding 7-domain form of VCAM-1 (GenBank accession #M60335) was obtained using Rapid-Screen™ cDNA library panels (OriGene Technologies, Inc) at Takara Gene Analysis Center (Shiga, Japan). The primers used were 5′-CCAAGGCAGAGTACGCAAAC-3′ (sense) and 5′-TGGCAGGTATTATTAAGGAG-3′ (antisense). PCR amplification of the 3-domain VCAM-1 cDNA was perform using Pfu DNA polymerase (Stratagene) with the following sets of primers: (U-VCAMd1-3) 5′-CCATATGGTACCTGATCAATTTAAAATCGAGACCACCCCAGAA-3′; (L-VCAMdl-3) 5-CCATATAGCAATCCTAGGTCCAGGGGAGATCTCAACAGTAAA-3′. PCR cycle was 94° C. for 45 sec, 55° C. for 45 sec, 72° C. for 2 min, repeating 15 cycles. After the purification of the PCR product, the fragment was digested with KpnI-AvrII. The digested fragment was ligated into pBluescript IISK(−) (Strategene), which was linearized by digesting with KpnI-XhoI. The ligation was followed by transformation to a Dam/Dcm methylase-free E. coli strain SCS110 (Strategene) to create the donor plasmid […]. To direct VCAM-1 molecule into the insect cell secretory pathway, the VCAM-1 coding sequence was fused to signal peptide sequence of honeybee melittin. The resulting melittin-VCAM fusion was placed in correct orientation to the baculovirus polyhedrin promoter. Baculovirus transfer vector containing first 3-domain form VCAM-1 (pH10) was constructed by ligation of 0.9 kb fragment from AvrII/Klenow/BclI digests of pH7 into SalI/Klenow/BamHI digests of pMelBacB (Invitrogen). Recombinant baculovirus was generated by using Bac-N-Blue™ Transfection kit (Invitrogen) according to the manufacture's instruction. The recombinant virus was amplified by infection to High-Five™ insect cells for 5-6 days, and virus titer was determined by plaque assay.
High-Five™ insect cells were pelleted in a 225 ml conical tube by centrifugation at 1000 rpm for 5 min. After discarding the supernatant, the pellet was resuspended in 1.5×10^9 pfu (MOI=5) of high-titer virus solution, followed by incubation for 1.5 hours at room temperature. The cells were pelleted again and washed once in fresh Express Five™ serum free medium. The cells were pelleted again and finally, resuspended in 200 ml of fresh Express Five TM medium, transferred to a 1,000 ml shaker flask, and incubated in a shaker at 27° C., 130 rpm, for 48 hours before the culture supernatant was collected. The purification of 3-domain form of VCAM-1 from the culture supernatant was performed by one-step anion exchange chromatography. Protein concentration was determined by using Coomassie protein assay reagent (Pierce) according to the manufacture's instruction.
Preparation of VCAM-1 Coated Microtiter Plates
Recombinant human VCAM-1 (extracellular domains 1-3) was dissolved at 1.0 μg/ml in PBS. Each well of the microtiter plates (Nalge Nunc International, Fluoronunc Cert, 437958) was coated with 100 μl of substrate or for background control with buffer alone for 15 hours at 4 C. After discarding the substrate solution, the wells were blocked using 150 μl per well of block solution (Kirkegaard Perry Laboratories, 50-61-01) for 90 minutes. The plate was washed with wash buffer containing 24 mM Tris-HCl (pH 7.4), 137 mM NaCl, […] and 2 mM MnCl2 just before addition of the assay.
In Vitro Assay using Ramos Cells
Preparation of Fluorescence Labeled Ramos Cells:
Ramos cells (American Type Culture Collection, Clone CRL-1596) were cultured in RPMI 1640 medium (Nikken Bio Medical Laboratory, CM1101) supplemented with 10% fetal bovine serum (Hyclone, A-1119-L), 100 U/ml penicilin (Gibco BRL, 15140-122) and 100 μg/ml streptomycin (Gibco BRL, 15140-122) in a humidified incubator at 37° C. with 5% CO2. […]

Setting [1] is: observed IC50 value ranges, Table 4 does not say whether Ramos-VCAM-1 or Jurkat-VCAM-1, read-out: IC50.

In the case of `Cc1ccccc1NC(=O)Nc1ccc(CC(=O)N[C@@H](CCN)C(=O)Nc2ccc(C(=O)O)cc2)cc1` [Example 40, 4-{[(2S)-4-amino-2-({[4-({[(2-methylphenyl)amino]carbonyl}amino)phenyl]acetyl}amino)butanoyl]amino}benzoic acid], the half-inhibitory concentration (IC50) (usually the concentration at which inhibition is half-maximal) (Ramos) is < 500 nM.
The same measure, in the same setting: with `Cc1ccccc1NC(=O)Nc1ccc(CC(=O)N[C@@H](CCCN)C(=O)Nc2ccc(C(=O)O)cc2)cc1` [Example 41, 4-[(N^2-{[4-({[(2-methylphenyl)amino]carbonyl}amino)phenyl]acetyl}-L-ornithyl)amino]benzoic acid] the figure was < 500 nM; with `Cc1ccccc1NC(=O)Nc1ccc(CC(=O)N[C@@H](CC(=O)O)C(=O)Nc2ccc(C(=O)O)cc2)cc1` [Example 42, 4-[(N-{[4-({[(2-methylphenyl)amino]carbonyl}amino)phenyl]acetyl}-L-α-aspartyl)amino]benzoic acid], < 500 nM.
Consider `Cc1ccccc1NC(=O)Nc1ccc(CC(=O)N[C@@H](Cc2c[nH]c3ccccc23)C(=O)Nc2ccc(C(=O)O)cc2)cc1` [Example 43, 4-[(N-{[4-({[(2-methylphenyl)amino]carbonyl}amino)phenyl]acetyl}-L-tryptophyl)amino]benzoic acid], for which the IC50 (Ramos) was < 500 nM.
As for `Cc1ccccc1NC(=O)Nc1ccc(CC(=O)NC(Cc2ccncc2)C(=O)Nc2ccc(C(=O)O)cc2)cc1` [Example 44, 4-{[N-{[4-(f{[(2-methylphenyl)amino]carbonyl}amino)phenyl]acetyl}-3-(4-pyridinyl)-L-alanyl]amino}benzoic acid], the IC50 (Ramos) is < 500 nM.
Still for that read-out and setting: as for `Cc1ccccc1NC(=O)Nc1ccc(CC(=O)N[C@@H](Cc2cccnc2)C(=O)Nc2ccc(C(=O)O)cc2)cc1` [Example 45, 4-{[N-{[4-({[(2-methylphenyl)amino]carbonyl}amino)phenyl]acetyl}-3-(3-pyridinyl)-L-alanyl]amino}benzoic acid], the figure is < 500 nM; as for `Cc1ccccc1NC(=O)Nc1ccc(CC(=O)N[C@@H](Cc2cscn2)C(=O)Nc2ccc(C(=O)O)cc2)cc1` [Example 46, 4-{[N-{[4-({[(2-methylphenyl)amino]carbonyl}amino)phenyl]acetyl}-3-(1,3-thiazol-4-yl)-L-alanyl]amino}benzoic acid], < 500 nM.
Still for that read-out and setting: as for `Cc1ccccc1NC(=O)Nc1ccc(CC(=O)N[C@@H](Cc2cnc[nH]2)C(=O)Nc2ccc(C(=O)O)cc2)cc1` [Example 47, 4-[(N-{[4-({[(2-methylphenyl)amino]carbonyl}amino)phenyl]acetyl}-L-histidyl)amino]benzoic acid], the figure is < 500 nM; as for `Cc1ccccc1NC(=O)Nc1ccc(CC(=O)N(CCCN(C)C)CC(=O)Nc2ccc(C(=O)O)cc2)cc1` [Example 56, 4-[(N-[3-(dimethylamino)propyl]-N-{[4-({[(2-methylphenyl)amino]carbonyl}amino)phenyl]acetyl}glycyl)amino]benzoic acid], < 500 nM.
For `Cc1ccccc1NC(=O)Nc1ccc(CC(=O)N(CCCCN)CC(=O)Nc2ccc(C(=O)O)cc2)cc1` [Example 57, 4-[(N-(4-aminobutyl)-N-{[4-({[(2-methylphenyl)amino]carbonyl}amino)-phenyl]acetyl}glycyl)amino]benzoic acid], for the setting “Ramos”, the IC50 was < 500 nM.
The same measure, in the same setting: with `Cc1ccccc1NC(=O)Nc1ccc(CC(=O)N(CCCN2CCCC2)CC(=O)Nc2ccc(C(=O)O)cc2)cc1` [Example 58, 4-({N-{[4-({[(2-methylphenyl)amino]carbonyl}amino)phenyl]acetyl}-N-[3-(1-pyrrolidinyl)propyl]glycyl}amino)benzoic acid] the figure was < 500 nM.
`CCN1CCCC1CN(CC(=O)Nc1ccc(C(=O)O)cc1)C(=O)Cc1ccc(NC(=O)Nc2ccccc2C)cc1` (stereo not shown) [Example 59, 4-[(N-[(1-ethyl-2-pyrrolidinyl)methyl]-N-{[4-({[(2-methylphenyl)amino]-carbonyl}amino)phenyl]acetyl}glycyl)amino]benzoic acid]: under setting [1], the IC50 is < 500 nM.
As for `Cc1ccccc1NC(=O)Nc1ccc(CC(=O)N(CCCN2CCN(c3ccccc3)CC2)CC(=O)Nc2ccc(C(=O)O)cc2)cc1` [Example 60, 4-({N-{[4-({[(2-methylphenyl)amino]carbonyl}amino)phenyl]acetyl}-N-[3-(4-phenyl-1-piperazinyl)propyl]glycyl}amino)benzoic acid], the IC50 (Ramos) is < 500 nM.
Same read-out and setting: as for `Cc1ccccc1NC(=O)Nc1ccc(CC(=O)N(CC(=O)Nc2ccc(C(=O)O)cc2)CC2CCCO2)cc1` (stereo not shown) [Example 61, 4-{[N-{[4-({[(2-methylphenyl)amino]carbonyl}amino)phenyl]acetyl}-N-(tetrahydro-2-furanylmethyl)glycyl]amino}benzoic acid], the figure is < 500 nM.
For the molecule `Cc1ccccc1NC(=O)Nc1ccc(CC(=O)N(CC(=O)Nc2ccc(C(=O)O)cc2)CC2CCNCC2)cc1` [Example 62, 4-{[N-{[4-({[(2-methylphenyl)amino]carbonyl}amino)phenyl]acetyl}-N-(4-piperidinylmethyl)glycyl]amino}benzoic acid], where the note is “Ramos”, the concentration for half-maximal inhibition (IC50) was < 500 nM.
As to `Cc1ccccc1NC(=O)Nc1ccc(CC(=O)N(CC(=O)Nc2ccc(C(=O)O)cc2)CC(C)(C)CN)cc1` [Example 63, 4-[(N-(3-amino-2,2-dimethylpropyl)-N-{[4-({[(2-methylphenyl)amino]-carbonyl}amino)phenyl]acetyl}glycyl)amino]benzoic acid], where the note is “Ramos”, the IC50 was < 500 nM.
In the case of `Cc1ccccc1NC(=O)Nc1ccc(CC(=O)N(CCN2CCCC2)CC(=O)Nc2ccc(C(=O)O)cc2)cc1` [Example 64, 4-({N-{[4-({[(2-methylphenyl)amino]carbonyl}amino)phenyl]acetyl}-N-[2-(1-pyrrolidinyl)ethyl]glycyl}amino)benzoic acid], the half-inhibitory concentration (IC50) under setting [1] was < 500 nM.
`CCCN(CC(=O)Nc1ccc(C(=O)O)cc1)C(=O)Cc1ccc(NC(=O)Nc2ccccc2C)cc1` [Example 65, 4-[(N-{[4-({[(2-methylphenyl)amino]carbonyl}amino)phenyl]acetyl}-N-propylglycyl)amino]benzoic acid]: the IC50 (Ramos) was < 500 nM.
Regarding `Cc1ccccc1NC(=O)Nc1ccc(CC(=O)N(CCCN2CCCC2=O)CC(=O)Nc2ccc(C(=O)O)cc2)cc1` [Example 66, 4-({N-{[4-({[(2-methylphenyl)amino]carbonyl}amino)phenyl]acetyl}-N-[3-(2-oxo-1-pyrrolidinyl)propyl]glycyl}amino)benzoic acid], the IC50 (Ramos) was < 500 nM.
On the same count and under the same terms, as for `COCCN(CC(=O)Nc1ccc(C(=O)O)cc1)C(=O)Cc1ccc(NC(=O)Nc2ccccc2C)cc1` [Example 67, 4-[(N-(2-methoxyethyl)-N-{[4-({[(2-methylphenyl)amino]carbonyl}amino)-phenyl]acetyl}glycyl)amino]benzoic acid], the figure is < 500 nM; as for `Cc1ccccc1NC(=O)Nc1ccc(CC(=O)N(CCCN2CCOCC2)CC(=O)Nc2ccc(C(=O)O)cc2)cc1` [Example 68, 4-({N-{[4-({[(2-methylphenyl)amino]carbonyl}amino)phenyl]acetyl}-N-[3-(4-morpholinyl)propyl]glycyl}amino)benzoic acid], < 500 nM.
Turning to `Cc1ccccc1NC(=O)Nc1ccc(CC(=O)N(CC(=O)Nc2ccc(C(=O)O)cc2)Cc2cccnc2)cc1` [Example 69, 4-{[N-{[4-({[(2-methylphenyl)amino]carbonyl}amino)phenyl]acetyl}-N-(3-pyridinylmethyl)glycyl]amino}benzoic acid], the concentration for half-maximal inhibition (IC50) (Ramos) is < 500 nM.
